Measured values as given in PMC4302236, “Functional profile of a novel modulator of serotonin, dopamine, and glutamate neurotransmission” (Psychopharmacology, 2014).
Marks after values point to notes of the source that are not given here.

What was measured:
[1] = test system: D-AMPH-induced hyperactivity; assay: Inhibition of D-amphetamine-induced hyperactivity; assay type: in vivo; conditions: rats, p.o.; D-AMPH 1 mg/kg i.p.; distance traveled over 2 h
Experimental: Male Sprague–Dawley rats (200–250 g, N=4/treatment group) were habituated to Lucite locomotor activity chambers comprising an AccuScan activity monitoring system (AccuScan Instruments, Inc., Columbus, OH) were maintained in a quiet observation room kept under low light conditions. […] The rats were briefly removed from the activity chambers 60 min later to receive an injection of D-amphetamine hydrochloride (D-AMPH; 1 mg/kg in 1 ml/kg, i.p.). The animals were returned to the activity chambers, and locomotor activity was then recorded for 2 h using system software. Activity was quantitated as distance traveled (cm) over 2 h for each group. Inhibitory activity was calculated as the percent of total activity observed at each dose level of each drug versus animals receiving D-AMPH alone. An ID50 for inhibition of D-AMPH-induced hyperactivity was calculated for each compound.

[2] = test system: serine 40 (S40)-phosphorylated tyrosine hydroxylase; assay: Striatal tyrosine hydroxylase S40 phosphorylation state (CNSProfile immunoblotting); assay type: in vivo; conditions: mice, acute; ITI-007 3 mg/kg p.o., clozapine 5 i.p., aripiprazole 10 p.o., olanzapine 1 i.p., risperidone 3 p.o., haloperidol 1 i.p.; over 60 min; vs vehicle
Experimental: The effect of the selected compounds on the phosphorylation state of tyrosine hydroxylase (TH) was measured and quantitated as an indicator of the potential of each compound to perturb presynaptic dopamine synthesis in striatum. […] This technique preserves in vivo levels of brain protein phosphorylation ([Zhu et al. 2010]). […] Small aliquots of the homogenate were retained for protein determination by the bicinchoninic acid (BCA) protein assay method (Pierce Chemical Co., Rockford, IL). […] Immunoblotting was carried out using a phos-phorylation state-specific polyclonal antibody raised against […] (S40)-phosphorylated tyrosine hydroxylase (Chemicon, Temecula, CA) and a pan-TH monoclonal antibody for measuring the total protein levels (BD Biosciences, San Jose, CA). […] Antibody binding was detected and quantitated using a LiCor Odyssey infrared fluorescent detection system. Phosphorylation at each site detected by phospho-specific antibodies was quantified, normalized to total levels of the protein (non-phosphorylated), and expressed as percent±SEM of the level of phosphorylation in vehicle-treated control mice (N=6).

[3] = test system: striatal dopamine metabolism; assay: Striatal dopamine metabolism (HPLC-EC of DA, DOPAC, HVA); assay type: in vivo, mice; conditions: for DOPAC/DA, chronic (21 day) dosing, mean / HVA/DA, chronic (21 day) dosing, mean: striatum 2 h after last dose; for DOPAC/DA, acute (2 h) dosing, mean / HVA/DA, acute (2 h) dosing, mean: striatum 2 h after dose
Experimental: Measurements of tissue dopamine levels were performed at CDC-NIOSH. […] Striatum was rapidly dissected from each mouse brain, weighed, and placed into Eppendorf tubes that were frozen in liquid nitrogen and stored at -80 °C. […] Tissues were homogenized in 100 μl of ice-cold 0.2 M perchloric acid containing 1 μM dihydroxybenzylamine (DHBA) as an internal standard and centrifuged at 10,000×g for 10 min at 4 °C. The supernatant was filtered through a 0.2 μm nitrocellulose membrane, and an aliquot (10 μl) was injected from a temperature-controlled (4 °C) automatic sample injector (Waters 717plus Autosampler) connected to a Waters 515 HPLC pump. Catecholamines were separated on a C18 reverse-phase column ([…]; Waters […] 25 cm×4.6 mm; 5 μm), electrochemically detected (Waters 464 Pulsed Electrochemical Detector; range 10 nA, potential +0.7 V), and analyzed using Millennium software. […] A flow rate of 1 ml/min was used. […] The recovery of each analyte was adjusted with respect to the internal standard and quantified from a standard curve. The levels of dopamine and its metabolites, DOPAC and HVA, were calculated from the AUC values for each (based on microgram per gram (μg/g) tissue wet weight) and expressed as a percent of the saline control.

extracellular dopamine = assay: In vivo microdialysis of dopamine and DOPAC in striatum and prefrontal cortex; conditions: rats
Experimental: On the day of the experiment (24–48 h after surgery), the microdialysis probes of each animal were connected via the use of flexible PEEK tubing to a microperfusion pump (Harvard Apparatus, PHD 2000 Holliston, MA). Artificial CSF, composed of 147 mM NaCl, 3 mM KCl, 1.2 mM CaCl2, and 1.2 mM MgCl2 was used to perfuse the probes (1.5 μl/min) beginning at 75 min prior to drug treatment. Baseline dialysate collection was begun for all rats 60 min prior to drug administration (t=−60 min) such that a total of […] were collected prior to drug treatment (t=0). […] A control group of rats (N=9) received only the 0.5 % methylcellulose vehicle solution, delivered orally (p.o.). All drug solutions were delivered in a volume of 1 ml/kg of body weight. Every 20 min for the following 3 h, dialysate was collected from both brain regions of each rat. Dialysates were collected into mini-vials containing 7.5 μl of 0.02 M formic acid using an automated fraction collector Univentor 820, Malta. Tubes containing dialysate samples were then frozen at −80 °C until analyzed by HPLC for levels of dopamine and the dopamine metabolite, DOPAC. […] Coronal sections were prepared of each rat brain to verify the position of the dialysis collection probes. Dopamine and DOPAC concentrations were determined in each sample using HPLC separation and electrochemical detection. An aliquot (20 μl) of each dialysate sample was injected onto the HPLC column by means of a refrigerated microsampler system, consisting of a syringe pump (Gilson, model 402), a multi-column injector (Gilson, model 233 XL), and a temperature regulator (Gilson, model 832). The chromatographic separation was performed on a reverse-phase 150 ×2.1 mm (3 μm) C18 Thermo BDS Hypersil column (Keystone Scientific). […] The mobile phase was run at a flow rate of 0.35 ml/min using an HPLC pump (Shimadzu, model LC-10AD vp). Dopamine and DOPAC were electrochemically detected using a potentiostat (Antec Leyden, model Intro) fitted with a glassy carbon electrode set a +500 mV versus Ag/AgCl (Antec, Leyden). Data were analyzed using Chromatography Data System software (Shimadzu, Class-VP, Japan) using an external standard method to quantify concentrations of dopamine and DOPAC. […] Drug effects were expressed as percentages of basal level (mean±SEM) within the same subject. Statistical analysis was performed using Sigmastat for Windows (SPSS Corporation). Drug effects were compared with baseline and vehicle control using a two-way ANOVA for repeated measurements followed by the Newman–Keuls post hoc test. […] For all tests, the level of statistical significance was set at p<0.05.

forelimb catalepsy = assay: Forelimb catalepsy, bar grip test; conditions: mice, 3 mg/kg p.o.; each time point (120-360 min); vs vehicle
Experimental: Forelimb catalepsy was measured using the bar grip test. Mice were placed in a Lucite mouse cage outfitted with a 3-mm diameter wooden rod suspended 4 cm from the floor of the cage. During testing, the mouse was allowed to grip the bar firmly with hind legs placed firmly on the floor of the cage. The mouse was required to maintain this posture for at least 10 s for a valid test session. Catalepsy was then quantitated by recording the latency (in seconds) to step both front paws down to the floor of the cage up to a maximum time of 120 s. If the mouse stepped off the bar immediately (less than 10 s), another attempt was made up to a maximum of ten attempts. The longest duration of immobility was recorded if none of the ten attempts were beyond 10 s. Catalepsy was measured for each mouse at 2, 3, 4, and 6 h after drug administration. Mean forelimb catalepsy time (in seconds) was calculated across each group and time point. Data were analyzed using ANOVA with Newman–Keuls post hoc test.

[4] = test system: GluN2B phosphorylated at tyrosine (Y) 1472; assay: GluN2B Y1472 phosphorylation state in nucleus accumbens; assay type: in vivo; conditions: mice, 1 mg/kg p.o., 120 min after administration
Experimental: Brains were rapidly removed from the skull. […] Brain tissue was prepared for SDS-PAGE as described above, and protein homogenates (15 μg) were separated on 3-7 % gradient gels, and proteins transferred to nitrocellulose membranes. Portions of each membrane were immunoblotted for GluN2B phosphorylated at […] (rabbit polyclonal) and total GluN2B (mouse monoclonal) (Thermo Fisher Scientific, Rockford, IL).

[5] = 1 mg/kg p.o. once daily 21 days
[6] = 10 mg/kg p.o. once daily 21 days
[7] = 3 mg/kg p.o. once daily 21 days
[8] = 30 mg/kg p.o. once daily 21 days

## Cc1nc2n(c(=O)c1CCN1CCC(c3noc4cc(F)ccc34)CC1)CCCC2 [Risperidone]
[1]
  ID50, inhibition of D-AMPH-induced hyperactivity: 0.33 mg/kg
[2]
  Effect on TH phosphorylation at S40 in striatum: significantly increase
[3]; [5]
  DOPAC/DA, chronic (21 day) dosing, mean: 16.35 ^*, ^**, ^***
  HVA/DA, chronic (21 day) dosing, mean: 29.37 ^*, ^**, ^***
[3]; 1 mg/kg p.o. once
  DOPAC/DA, acute (2 h) dosing, mean: 14.35 ^*, ^**, ^***
  HVA/DA, acute (2 h) dosing, mean: 30.71 ^*, ^**, ^***
[3]; [6]
  DOPAC/DA, chronic (21 day) dosing, mean: 25.12 ^*, ^**, ^***
  HVA/DA, chronic (21 day) dosing, mean: 36.39 ^*, ^**, ^***
[3]; 10 mg/kg p.o. once
  DOPAC/DA, acute (2 h) dosing, mean: 30.98 ^*, ^**, ^***
  HVA/DA, acute (2 h) dosing, mean: 23.06 ^*, ^**, ^***

## O=C(CCCN1CCC(O)(c2ccc(Cl)cc2)CC1)c1ccc(F)cc1 [Haloperidol]
Extracellular dopamine; 0.3 mg/kg s.c., p<0.001 vs vehicle
  DA and DOPAC efflux in striatum: significant increase
Extracellular dopamine; 0.3 mg/kg s.c., p<0.01 (DA), p<0.001 (DOPAC) vs vehicle
  DA and DOPAC levels in mPFC: elevated
Forelimb catalepsy
  Forelimb catalepsy, bar grip test: profound forelimb catalepsy
[1]
  ID50, inhibition of D-AMPH-induced hyperactivity: 0.04 mg/kg
[2]
  Effect on TH phosphorylation at S40 in striatum: significantly increase
[4]
  GluN2B phosphorylation at Y1472 in nucleus accumbens: 177±28 % of control
[3]; [5]
  DOPAC/DA, chronic (21 day) dosing, mean: 18.26 ^*, ^**, ^***
  HVA/DA, chronic (21 day) dosing, mean: 29.23 ^*, ^**, ^***
[3]; 1 mg/kg p.o. once
  DOPAC/DA, acute (2 h) dosing, mean: 19.69 ^*, ^**, ^***
  HVA/DA, acute (2 h) dosing, mean: 31.04 ^*, ^**, ^***
[3]; [7]
  DOPAC/DA, chronic (21 day) dosing, mean: 17.00 ^*, ^**, ^***
  HVA/DA, chronic (21 day) dosing, mean: 24.15 ^*, ^**, ^***
[3]; 3 mg/kg p.o. once
  DOPAC/DA, acute (2 h) dosing, mean: 22.68 ^*, ^**, ^***
  HVA/DA, acute (2 h) dosing, mean: 28.14 ^*, ^**, ^***

## CN1CCN(C2=Nc3cc(Cl)ccc3Nc3ccccc32)CC1 [Clozapine]
[2]
  Effect on TH phosphorylation at S40 in striatum: did not significantly affect

## O=C1CCc2ccc(OCCCCN3CCN(c4cccc(Cl)c4Cl)CC3)cc2N1 [Aripiprazole]
Extracellular dopamine; 30 mg/kg p.o.
  DA or DOPAC efflux in striatum or mPFC: did not significantly affect
[1]
  ID50, inhibition of D-AMPH-induced hyperactivity: 4.65 mg/kg
[2]
  Effect on TH phosphorylation at S40 in striatum: did not significantly affect
[3]; [7]
  DOPAC/DA, chronic (21 day) dosing, mean: 8.27 ^*, ^**
  HVA/DA, chronic (21 day) dosing, mean: 12.14 ^*
[3]; 3 mg/kg p.o. once
  DOPAC/DA, acute (2 h) dosing, mean: 8.57
  HVA/DA, acute (2 h) dosing, mean: 12.63
[3]; [8]
  DOPAC/DA, chronic (21 day) dosing, mean: 7.25 ^*, ^**
  HVA/DA, chronic (21 day) dosing, mean: 12.32 ^*
[3]; 30 mg/kg p.o. once
  DOPAC/DA, acute (2 h) dosing, mean: 11.89
  HVA/DA, acute (2 h) dosing, mean: 11.20

## Cc1cc2c(s1)Nc1ccccc1N=C2N1CCN(C)CC1 [Olanzapine]
[2]
  Effect on TH phosphorylation at S40 in striatum: significantly increase
